# “And” between values parts separate entries of the source, which are not always exact repeats. Equal entries are not always repeated.
# Molecular target: T1, PRMT9 (Homo sapiens, UniProt Q6P2P2)
# T1 construct: host or cells: HEK293
# T1 sequence (Q6P2P2 1-845): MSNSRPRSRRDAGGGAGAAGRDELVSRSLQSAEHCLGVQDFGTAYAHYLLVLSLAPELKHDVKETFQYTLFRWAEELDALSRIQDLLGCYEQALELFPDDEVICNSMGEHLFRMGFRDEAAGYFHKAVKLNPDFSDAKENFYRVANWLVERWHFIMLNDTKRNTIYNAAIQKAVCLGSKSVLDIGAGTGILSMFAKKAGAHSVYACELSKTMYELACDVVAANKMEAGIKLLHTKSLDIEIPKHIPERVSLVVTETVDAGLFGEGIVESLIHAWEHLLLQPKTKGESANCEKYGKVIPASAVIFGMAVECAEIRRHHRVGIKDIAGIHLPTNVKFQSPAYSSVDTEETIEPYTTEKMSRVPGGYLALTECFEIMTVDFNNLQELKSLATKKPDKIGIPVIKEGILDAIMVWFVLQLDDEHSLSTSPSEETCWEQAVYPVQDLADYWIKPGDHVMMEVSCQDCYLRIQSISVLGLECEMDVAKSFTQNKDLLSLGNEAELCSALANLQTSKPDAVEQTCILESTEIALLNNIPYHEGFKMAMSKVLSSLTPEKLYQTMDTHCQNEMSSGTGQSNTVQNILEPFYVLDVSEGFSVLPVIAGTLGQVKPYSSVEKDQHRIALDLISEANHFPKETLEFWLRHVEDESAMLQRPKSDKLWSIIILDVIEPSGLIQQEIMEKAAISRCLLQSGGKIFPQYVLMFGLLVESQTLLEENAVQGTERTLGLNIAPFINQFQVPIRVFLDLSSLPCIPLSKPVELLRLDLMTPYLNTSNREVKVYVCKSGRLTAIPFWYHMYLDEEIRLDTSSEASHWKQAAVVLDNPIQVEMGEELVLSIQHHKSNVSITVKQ
# Test: CBH-002 affinity curve, HEK293, PRMT9-NL fusion
# Format: cell-based
# Parameters: BRET, CBH-002 + DMSO / BRET, CBH-002 + GSK3326595: unit not given here
# Settings: for BRET, CBH-002 + DMSO / BRET, CBH-002 + GSK3326595: Figure S2D PRMT9-NL, log([CBH-002])
# Description: HEK293 cells (ATCC) were cultured in DMEM (Thermo Fisher) + 10% (v/v) FBS (Seredigm), and HCT116 cells (Horizon Discovery, #PAR-034 and #R02-033) were cultured in McCoy’s 5A (Thermo Fisher) + 10% FBS, with incubation in a humidified, 37 °C/5% CO2 incubator. Cells were split 1–3 days prior to performing experiments and used at roughly 80% confluency. […] Cells were transfected according to the manufacturer’s protocol using FuGENE HD (Promega). NanoLuc fusion DNA was diluted into Transfection Carrier DNA (Promega) in Opti-MEM at a ratio of 1:9 (mass/mass), and FuGENE HD was added at a ratio of 1:3 (μg DNA:μL lipid). For experiments using WDR77, untagged WDR77 DNA (Promega) was used in place of Carrier DNA. Formed complexes were combined with cells resuspended to a density of 2 × 10^5 cells/mL in Opti-MEM + 1% FBS at a ratio of 1:20 (vol:vol). Cells were plated into a flask and incubated at 37 °C in a humidified 5% CO2 atmosphere for 18–24 h, before being lifted and seeded into 96-well non-binding surface-treated plates (Corning). Cells were seeded at a density of 2 × 10^5 cells/mL in Opti-MEM + 1% FBS in 100 μL (96-well). The BRET probe CBH-002 was prepared first as a 100× stock in 100% DMSO (Sigma) and then diluted to a 20× stock in NanoBRET Tracer Dilution buffer (Promega). Test compounds were prepared as 1000× stocks in 100% DMSO and diluted to 10× stocks in Opti-MEM to prepare working stocks. […] NanoBRET Complete 3x Substrate was prepared by combining Nano-Glo Substrate and Extracellular NanoLuc Inhibitor in Opti-MEM, according to the manufacturer’s protocol (Promega). NanoBRET Complete 3× Substrate was added to cells and plates were measured on either a PheraSTAR FSX equipped with 450 nm (donor) and 610 nm (acceptor) filters, or a GloMAX Discover equipped with 450/8 nm BP (donor) and 600 nm LP (acceptor) filters, using a 0.3 s integration time.
# EC50 values were obtained by fitting the BRET probe and compound affinity curves to a sigmoidal four-parameter fit model in Graphpad Prism:1 Y=Ymin+Ymax−Ymin/1+10^LogEC50−Xh where h is the Hill Slope.
compound,measurement,setting,value
O=C(CCc1ccc2n1[B-](F)(F)[N+]1=C(c3ccc[nH]3)C=CC1=C2)NCCCCC(=O)N1CCC(Nc2cc(C(=O)NC[C@H](O)CN3CCc4ccccc4C3)ncn2)CC1 [CBH-002],"BRET, CBH-002 + DMSO",uM 0.04576,3.434 and 3.347 and 3.1287
same,"BRET, CBH-002 + GSK3326595",uM 0.04576,3.008 and 3.39 and 2.997
same,"BRET, CBH-002 + DMSO",uM 0.52288,4.122 and 5.87 and 4.53
same,"BRET, CBH-002 + GSK3326595",uM 0.52288,5.212 and 4.497 and 4.8771
same,"BRET, CBH-002 + DMSO",uM 1,6.91 and 7.001 and 6.884
same,"BRET, CBH-002 + GSK3326595",uM 1,6.307 and 7.343 and 6.276
same,"BRET, CBH-002 + DMSO",uM -0.43136,2.433 and 2.903 and 2.863
same,"BRET, CBH-002 + GSK3326595",uM -0.43136,2.897 and 2.374 and 2.8944
same,"BRET, CBH-002 + DMSO",uM -0.90849,2.344 and 2.202 and 2.303
same,"BRET, CBH-002 + GSK3326595",uM -0.90849,2.454 and 2.214 and 2.074
same,"BRET, CBH-002 + DMSO",uM -1.20952,1.839 and 2.321 and 2.413
same,"BRET, CBH-002 + GSK3326595",uM -1.20952,2.422 and 2.062 and 3.074
same,"BRET, CBH-002 + DMSO",uM -1.68664,1.998 and 2.054 and 2.063
same,"BRET, CBH-002 + GSK3326595",uM -1.68664,2.126 and 2.181 and 2.003
same,"BRET, CBH-002 + DMSO",uM -1.98767,2.1788 and 2.218 and 2.268
same,"BRET, CBH-002 + GSK3326595",uM -1.98767,2.04 and 1.965 and 2.075
same,"BRET, CBH-002 + GSK3326595",uM -2.46479,2.072 and 1.988 and 1.944
same,"BRET, CBH-002 + DMSO",uM -2.94191,1.888 and 2.124 and 2.713
same,"BRET, CBH-002 + GSK3326595",uM -2.94191,1.993 and 2.159 and 2.4012
same,CBH-002 engagement at PRMT9,"HEK293, PRMT9-NL",did not show engagement
